{"source": "patent US20200046831A1", "about": "“NANOEMULSION COMPRISING IMIDAZOQUINOLINE-BASED MATERIAL AND USE THEREOF” (DANDI BIOSCIENCE INC., priority 2017, published 2020)", "origin": "cited, not measured here", "data": [{"compound": "CC(C)Cn1cnc2c(N)nc3ccccc3c21", "note": "[imiqimod (R837), imiquimod]", "values": [{"measurement": "solubility in organic solvents", "value": "not dissolved in most organic solvents except for DMSO"}]}]}
